Measured values published in ChEMBL document CHEMBL1139654, “Antiangiogenic activity of deoxoartemisinin derivatives on chorioallantoic membrane” (Bioorg Med Chem Lett, 2006).

organism: Gallus gallus; test: Antiangiogenic activity at chorioallantoic membrane of chick embryo at 5 nmol per egg; assay type: functional, organism-based

SMILES | inhibition [%] | Activity
C[C@@H]1CC[C@H]2[C@@H](COC[C@H]3CO[C@@H]4O[C@]5(C)CC[C@H]6[C@H](C)CC[C@@H]3[C@@]46OO5)CO[C@@H]3OC4(C)CC[C@@H]1[C@]32OO4 (single isomer, unassigned) | 71 | –
C[C@H]1[C@@H](CCCC(=O)O)O[C@@H]2O[C@]3(C)CC[C@H]4[C@H](C)CC[C@@H]1[C@@]24OO3 | 50 | –
C[C@H]1[C@@H](CCO)O[C@@H]2O[C@]3(C)CC[C@H]4[C@H](C)CC[C@@H]1[C@@]24OO3 | 63 | –
C[C@@H]1CC[C@H]2[C@H](CBr)CO[C@@H]3O[C@]4(C)CC[C@@H]1[C@]32OO4 | 75 | –
C[C@H]1[C@@H](CC[S+]([O-])CC[C@H]2O[C@@H]3O[C@]4(C)CC[C@H]5[C@H](C)CC[C@@H]([C@H]2C)[C@@]35OO4)O[C@@H]2O[C@@]3(C)CC[C@H]4[C@H](C)CC[C@@H]1[C@@]24OO3 | – | Toxic
CCO[C@H]1O[C@@H]2O[C@@]3(C)CC[C@H]4[C@H](C)CC[C@@H]([C@H]1C)[C@@]24OO3 | 29 | –
C[C@@H]1CC[C@H]2[C@@H](C)C(=O)O[C@@H]3O[C@@]4(C)CC[C@@H]1[C@]32OO4 | 25 | –
C[C@H]1[C@@H](O)O[C@@H]2O[C@@]3(C)CC[C@H]4[C@H](C)CC[C@@H]1[C@@]24OO3 | 25 | –
C[C@H]1[C@@H](CCCOC(=O)CC(=O)OCCC[C@H]2O[C@@H]3O[C@]4(C)CC[C@H]5[C@H](C)CC[C@@H]([C@H]2C)[C@@]35OO4)O[C@@H]2O[C@]3(C)CC[C@H]4[C@H](C)CC[C@@H]1[C@@]24OO3 | 14 | –
CCCC[C@H]1O[C@@H]2O[C@]3(C)CC[C@H]4[C@H](C)CC[C@@H]([C@H]1C)[C@@]24OO3 | 63 | –
C[C@H]1[C@@H](CCS(=O)(=O)CC[C@H]2O[C@@H]3O[C@]4(C)CC[C@H]5[C@H](C)CC[C@@H]([C@H]2C)[C@@]35OO4)O[C@@H]2O[C@@]3(C)CC[C@H]4[C@H](C)CC[C@@H]1[C@@]24OO3 | – | Toxic
CCS[C@H]1O[C@@H]2O[C@]3(C)CC[C@H]4[C@H](C)CC[C@@H]([C@H]1C)[C@@]24OO3 | 17 | –
C[C@H]1[C@@H](CCN)O[C@@H]2O[C@]3(C)CC[C@H]4[C@H](C)CC[C@@H]1[C@@]24OO3 | 29 | –
O=C1CC[C@H](N2C(=O)c3ccccc3C2=O)C(=O)N1 | 50 | –
C[C@@H]1CC[C@H]2[C@@H](C)CO[C@@H]3O[C@]4(C)CC[C@@H]1[C@]32OO4 | 29 | –
C[C@@H]1CC[C@H]2[C@@H](C(=O)O)CO[C@@H]3O[C@]4(C)CC[C@@H]1[C@]32OO4 | 20 | –
C[C@@H]1CC[C@H]2[C@@H](CO)CO[C@@H]3O[C@]4(C)CC[C@@H]1[C@]32OO4 | 29 | –
C[C@H]1[C@@H](CCc2ccc(C(=O)O)cc2)O[C@@H]2O[C@]3(C)CC[C@H]4[C@H](C)CC[C@@H]1[C@@]24OO3 | 29 | –
C=C1CO[C@@H]2O[C@]3(C)CC[C@H]4[C@H](C)CC[C@@H]1[C@@]24OO3 | 29 | –
C[C@H]1[C@@H](CCNC(=O)CC[C@H]2O[C@@H]3O[C@]4(C)CC[C@H]5[C@H](C)CC[C@@H]([C@H]2C)[C@@]35OO4)O[C@@H]2O[C@]3(C)CC[C@H]4[C@H](C)CC[C@@H]1[C@@]24OO3 | 43 | –
C[C@H]1[C@@H](CCBr)O[C@@H]2O[C@]3(C)CC[C@H]4[C@H](C)CC[C@@H]1[C@@]24OO3 | 29 | –
CO[C@@H]1[C@H](OC(=O)/C=C/C=C/C=C/C=C/C(=O)O)CC[C@]2(CO2)[C@H]1[C@@]1(C)O[C@@H]1CC=C(C)C | 57 | –
